From BigSolDB 2.1

COc1cccc(CCc2ccccc2OCC(CN(C)C)OC(=O)CCC(=O)O)c1.Cl (stereo not given)
solubility (mole fraction)
Settings	in THF	in acetone	in acetonitrile	in ethanol	in isopropanol	in methanol	in n-butanol	in n-propanol
288.15 K	2.24e-05	4.85e-05	9.78e-05	0.00168	4.48e-05	0.00376	0.00011	0.000171
293.15 K	3.25e-05	7.84e-05	0.000141	0.00211	8.24e-05	0.00493	0.000146	0.000262
298.15 K	4.28e-05	0.000106	0.000171	0.00278	0.00011	0.00653	0.00019	0.000354
303.15 K	7.01e-05	0.000193	0.000239	0.00345	0.000144	0.00856	0.000294	0.000504
308.15 K	9.92e-05	0.000275	0.000313	0.00476	0.000186	0.0116	0.000412	0.000698
